# In paper PMC7588914, “Luminescence of Cypridina Luciferin in the Presence of Human Plasma Alpha 1-Acid Glycoprotein” (International Journal of Molecular Sciences, 2020):
# Tested on: T1, human plasma alpha 1-acid glycoprotein (hAGP)
# T1 construct: gene ORM1; native, purified from human plasma (commercial, Sigma-Aldrich); secreted glycoprotein, signal peptide removed; plasma preparation is normally a mix of ORM1 and ORM2 products
# Assay: luminescence intensity, Michaelis-Menten fit
# Assay type: biochemical
# Details: 50 mM Gly-NaOH pH 9.5, room temperature, 25 μg/mL hAGP; hAGP treated as a luciferase
smiles,measurement,value
CC[C@H](C)c1nc2c(CCCNC(=N)N)[nH]c(-c3c[nH]c4ccccc34)cn-2c1=O [Cypridina luciferin],Km,0.46 µM
